# Source: patent EP0998924A1, “ANTITUMOR AGENTS” (MEIJI MILK PRODUCTS COMPANY LIMITED, priority 1997, dated 1999)
# Tested on: topoisomerase II
# Test: Measurement of topoisomerase II inhibitory activity (kDNA decatenation, agarose gel electrophoresis and densitometry)
# Format: biochemical, rat
# Description: Test Example 1 Measurement of Topoisomerase II Inhibitory Activity
# (A) Extraction of crude topoisomerase II from rat infant brain nuclei (IBN)
# IBN (11.98 mg/ml in 50% glycerol) (4.2 µl) was fractionated and subjected to centrifugation (3,000 × g, one minute), to thereby remove glycerol. The thus-obtained pellet was suspended in a nuclear extraction buffer (20 mM Tris-HCl (pH 7.5), 0.3 M NaCl, 140 mM β-Me, […], 20 mM PMSF) (10 µl), and the suspension was incubated in ice for 30 minutes. Subsequently, the suspension was subjected to centrifugation (10,000 × g, 10 minutes) and supernatant was fractionated, to thereby obtain crude topoisomerase II. The thus-obtained topoisomerase II was diluted on the basis of activity.
# (B) Dilution of purified topoisomerase II (Top GEN, Inc)
# Topoisomerase II (Top GEN, Inc) was diluted with the aforementioned nuclear extraction buffer, so as to attain a concentration of 0.75 unit/ml.
# A test sample (1 µl) and a buffer (18 µl) containing a mixture of required amounts of Milli Q, 4 × topoisomerase II buffer (250 mM Tris-HCl (pH 7.9), 600 mM KCl, 50 mM MgCl2, 0.5 mM EDTA, 2.5 mM ATP, 150 mg/ml BSA), and k DNA (312 ng/ml) were added to an Eppendorf tube, and the resultant mixture was vortexed and lightly centrifuged. Subsequently, diluted crude topoisomerase II or diluted purified topoisomerase (1 µl) was added to the mixture, and the mixture was vortexed and lightly centrifuged. (Meanwhile, instead of such topoisomerase II, Milli Q (1 µl) and 50% DMSO (1 µl) were added to a reaction system prepared as a control, which system contains neither enzyme nor xanthone derivative, and 50% DMSO (1 µl) was added to a reaction system containing no xanthone derivative.)
# The Eppendorf tube containing crude topoisomerase II and the Eppendorf tube containing purified topoisomerase II were allowed to stand for 30 minutes at 30°C and 37°C, respectively. Subsequently, SDS/PK/BJ (4 µl) was added to both of the tubes in ice, and both were allowed to stand at 50°C for five minutes, vortexed, and lightly centrifuged. After being allowed to stand again at 50°C for 30 minutes, they were vortexed and lightly centrifuged.
# (C) Agarose gel electrophoresis and densitometry
# The above-treated mixture was subjected to agarose gel electrophoresis (-EtBr 50 V) by use of a 1 × TBE buffer for electrophoresis (89 mM Tris Base/89 mM boric acid/2 mM EDTA2Na). After electrophoresis, gel staining was performed by use of 1 × TBE ([…]). After being decolorized, the gel was irradiated with UV rays, and bands on the gel were observed. The concentration of the agarose gel was 0.8%.
# The amount of reacted enzyme was quantified by transforming the depth of color of the bands on the gel into numerical values by use of a computer (Gel Plotting Macros installed in NIH Image). Data of bands of mini-circle DNA were processed by a computer for conversion into numerical values and calculation, to thereby obtain residual activity (%).
# [1] = test sample concentration 100 µg/ml
# [2] = test sample concentration 500 µg/ml
# [3] = test sample concentration 0.5 µg/ml
# [4] = test sample concentration 10 µg/ml
# [5] = test sample concentration 50 µg/ml
# [6] = test sample concentration 1 µg/ml
Compound,Residual activity (%) [1],Residual activity (%) [2],Residual activity (%) [3],Residual activity (%) [4],further results
hopeaphenol,4%,1%,,,
"Oc1ccc([C@H]2c3c(O)cc4c5c3[C@@H]([C@@H](c3ccc(O)cc3)c3c(O)cc(O)cc3[C@@H]5[C@@H](c3ccc(O)cc3)O4)[C@@H]2c2cc(O)cc(O)c2)cc1 [Davidiol A, davidiol A]",3%,2%,,,
"Oc1ccc(C=CC=Cc2ccc(O)cc2)cc1 [4,4-(1,3-Butadiene-1,4-diyl)bis-phenol, 4,4-(1,3-butadiene-1,4-diyl)bis-phenol]",28%,0%,,,
kobophenol A,,,68%,59%,Residual activity (%) [5]: 18%
"Oc1ccc([C@H]2Oc3cc(O)cc4c3[C@@H]2c2cc(O)cc3c2[C@@H](c2cc(O)cc5c2[C@@H]4[C@H](c2ccc(O)cc2)O5)[C@H](c2ccc(O)cc2)O3)cc1 [α-Viniferin, α-viniferin]",,,41%,,Residual activity (%) [6]: 38%; Residual activity (%) [5]: 0%
miyabenol A,,,32%,0%,Residual activity (%) [6]: 13%
miyabenol C,,,57%,0%,Residual activity (%) (test sample concentration 2 µg/ml): 42%
leachianol A,1%,2%,,,
leachianol B,1%,1%,,,
